Where a name gives a salt, the structure may show the parent alone.
Key:
[1] = tested on: HCV RNA replicon ET; experiment: HCV RNA replicon luciferase reporter assay, antiviral activity; type: cell-based; details: ET replicon cells, 72 h, LUC activity; for EC90: concentration reducing viral replication by 90%; for EC50: concentration reducing viral replication by 50%
[2] = tested on: human hepatoma cell line ET; experiment: Cytotoxicity in the replicon cell line, colorimetric assay of cell numbers; details: ET cells, 72 h; for IC50: read-out: Cytotoxicity IC50, concentration inhibiting cell viability by 50%; for IC90: read-out: Cytotoxicity IC90, concentration inhibiting cell viability by 90%
Source text: Compounds were examined in the human hepatoma cell line ET (lub ubi heo/ET), a HCV RNA replicon containing a stable luciferase (LUC) reporter. The HCV RNA replicon ET contains the 5′ end of HCV (with the HCV Internal Ribosome Entry Site (IRES) and the first few amino acids of the HCV core protein) which drives the production of a firefly luciferase (LUC), ubiquitin, and neomycin phosphotransferase (NeoR) fusion protein. Ubiquitin cleavage releases the LUC and NeoR proteins. The EMCV IRES element controls the translation of the HCV […] NS3-NS5. The NS3 protein cleaves the HCV polyprotein to release the mature NS3, NS4A, NS4B, NS5A and NS5B proteins that are required for HCV replication. At the 3′ end of the replicon is the authentic 3′ NTR of HCV. The activity of the LUC reporter is directly proportional to HCV replication levels and positive-control antiviral compounds produce a reproducible antiviral response using the LUC endpoint.
The compounds were dissolved in DMSO at five half-log concentrations each, ranging from either 0.02 to 2.0 μM, 0.03 to 3 μM, […], or 1 to 100 μM. Subconfluent cultures of the ET line were plated out into 96 well plates dedicated for the analysis of cell numbers (cytotoxicity) or antiviral activity and the next day the compounds were added to the appropriate wells. The cells were processed 72 h later when the cells were still subconfluent. […] The activity of the LUC reporter is directly proportional to HCV RNA levels in the human cell line. The HCV-replicon assay was validated in parallel experiments using interferon-alpha-2b as a positive control.

| Compound | EC90 [1] [µM] | IC50 [2] [µM] | IC90 [2] [µM] | EC50 [1] [µM] |
| --- | --- | --- | --- | --- |
| C/C=C/C[C@@H](C)[C@@H](O)[C@H]1C(=O)N[C@@H](CC)C(=O)N(C)C(OC)C(=O)N(C)[C@@H](CC(C)C)C(=O)N[C@@H](C(C)C)C(=O)N(C)[C@@H](CC(C)C)C(=O)N[C@@H](C)C(=O)N[C@H](C)C(=O)N(C)[C@@H](CC(C)C)C(=O)N(C)[C@@H](CC(C)C)C(=O)N(C)[C@@H](C(C)C)C(=O)N1C (stereo partly drawn) [A, 3-methoxycyclosporin] | 0.22 | 2.33 | > 3 | – |
| C/C=C/C[C@@H](C)[C@@H](O)[C@H]1C(=O)N[C@@H](CC)C(=O)N(C)[C@H](OCCN)C(=O)N(C)[C@@H](CC(C)C)C(=O)N[C@@H](C(C)C)C(=O)N(C)[C@@H](CC(C)C)C(=O)N[C@@H](C)C(=O)N[C@H](C)C(=O)N(C)[C@@H](CC(C)C)C(=O)N(C)[C@@H](CC(C)C)C(=O)N(C)[C@@H](C(C)C)C(=O)N1C [Compound B, 3-(2-aminoethoxy)cyclosporin] | 2.72 | 6.31 | 20.3 | 1.18 |
| C/C=C/C[C@@H](C)[C@@H](O)[C@H]1C(=O)N[C@@H](CC)C(=O)N(C)[C@H](OCCN(C)C)C(=O)N(C)[C@@H](CC(C)C)C(=O)N[C@@H](C(C)C)C(=O)N(C)[C@@H](CC(C)C)C(=O)N[C@@H](C)C(=O)N[C@H](C)C(=O)N(C)[C@@H](CC(C)C)C(=O)N(C)[C@@H](CC(C)C)C(=O)N(C)[C@@H](C(C)C)C(=O)N1C [Compound C, 3-(2-N,N-dimethylaminoethoxy)cyclosporin] | 0.64 | > 3 | > 3 | 0.18 |
| CC=CCC(C)C(O)C1C(=O)NC(CC)C(=O)N(C)C(OCC(CC)CC)C(=O)N(C)C(CC(C)C)C(=O)NC(C(C)C)C(=O)N(C)C(CC(C)C)C(=O)NC(C)C(=O)NC(C)C(=O)N(C)C(CC(C)C)C(=O)N(C)C(CC(C)C)C(=O)N(C)C(C(C)C)C(=O)N1C (stereo not drawn) [Compound E, 3-(2-ethylbutoxy)cyclosporin] | – | 15.6 | – | – |
| C/C=C/C[C@@H](C)[C@@H](O)[C@H]1C(=O)N[C@@H](CC)C(=O)N(C)C(OCCNC)C(=O)N(C)[C@@H](CC(C)C)C(=O)N[C@@H](C(C)C)C(=O)N(C)[C@@H](CC(C)C)C(=O)N[C@@H](C)C(=O)N[C@H](C)C(=O)N(C)[C@@H](CC(C)C)C(=O)N(C)[C@@H](CC(C)C)C(=O)N(C)[C@@H](C(C)C)C(=O)N1C (stereo partly drawn) [Compound I, 3-[2-(N-methylamino)ethoxy]cyclosporin] | 1.87 | 2.83 | 17.4 | 1.01 |
| C/C=C/C[C@@H](C)[C@@H](O)[C@H]1C(=O)N[C@@H](CC)C(=O)N(C)[C@H](OCC(C)(C)C)C(=O)N(C)[C@@H](CC(C)C)C(=O)N[C@@H](C(C)C)C(=O)N(C)[C@@H](CC(C)C)C(=O)N[C@@H](C)C(=O)N[C@H](C)C(=O)N(C)[C@@H](CC(C)C)C(=O)N(C)[C@@H](CC(C)C)C(=O)N(C)[C@@H](C(C)C)C(=O)N1C [F, 3-(2,2-dimethylpropoxy)cyclosporin] | – | > 20 | – | 17 |
| C/C=C/C[C@@H](C)[C@@H](O)[C@H]1C(=O)N[C@@H](CC)C(=O)N(C)C(OCCO)C(=O)N(C)[C@@H](CC(C)C)C(=O)N[C@@H](C(C)C)C(=O)N(C)[C@@H](CC(C)C)C(=O)N[C@@H](C)C(=O)N[C@H](C)C(=O)N(C)[C@@H](CC(C)C)C(=O)N(C)[C@@H](CC(C)C)C(=O)N(C)[C@@H](C(C)C)C(=O)N1C (stereo partly drawn) [G, 3-(2-hydroxyethoxy)cyclosporin] | 0.57 | 10.3 | > 20 | < 0.2 |
| C/C=C/C[C@@H](C)[C@@H](O)[C@H]1C(=O)N[C@@H](CC)C(=O)N(C)C(OCCN(C)C(C)C)C(=O)N(C)[C@@H](CC(C)C)C(=O)N[C@@H](C(C)C)C(=O)N(C)[C@@H](CC(C)C)C(=O)N[C@@H](C)C(=O)N[C@H](C)C(=O)N(C)[C@@H](CC(C)C)C(=O)N(C)[C@@H](CC(C)C)C(=O)N(C)[C@@H](C(C)C)C(=O)N1C (stereo partly drawn) [J, 3-[2-(N-methyl-N-isopropylamino)ethoxy]cyclosporin] | 0.53 | 8.2 | 19.6 | 0.15 |
| CC=CCC(C)C(O)C1C(=O)NC(CC)C(=O)N(C)C(OCCN2CCCCC2)C(=O)N(C)C(CC(C)C)C(=O)NC(C(C)C)C(=O)N(C)C(CC(C)C)C(=O)NC(C)C(=O)NC(C)C(=O)N(C)C(CC(C)C)C(=O)N(C)C(CC(C)C)C(=O)N(C)C(C(C)C)C(=O)N1C (stereo not drawn) [K, 3-[2-(piperidin-1-yl)ethoxy]cyclosporin] | 0.59 | 5.5 | 17.8 | 0.26 |
| C/C=C/C[C@@H](C)[C@@H](O)[C@H]1C(=O)N[C@@H](CC)C(=O)N(C)C(OCC)C(=O)N(C)[C@@H](CC(C)C)C(=O)N[C@@H](C(C)C)C(=O)N(C)[C@@H](CC(C)C)C(=O)N[C@@H](C)C(=O)N[C@H](C)C(=O)N(C)[C@@H](CC(C)C)C(=O)N(C)[C@@H](CC(C)C)C(=O)N(C)[C@@H](C(C)C)C(=O)N1C (stereo partly drawn) [M, 3-ethoxycyclosporin] | 6.11 | > 20 | > 20 | 3.35 |
| CC=CCC(C)C(O)C1C(=O)NC(CC)C(=O)N(C)C(SCCN(C)C)C(=O)N(C)C(CC(C)(C)O)C(=O)NC(C(C)C)C(=O)N(C)C(CC(C)C)C(=O)NC(C)C(=O)NC(C)C(=O)N(C)C(CC(C)C)C(=O)N(C)C(CC(C)C)C(=O)N(C)C(C(C)C)C(=O)N1C [MeSO2, [(R)-2-(N,N-dimethylamino)ethylthio-Sar]3[4′-hydroxy-MeLeu]4 cyclosporin] | 0.5 | > 2 | > 2 | 0.16 |
| CC=CCC(C)C(O)C1C(=O)NC(CC)C(=O)N(C)C(SCCN(C)C)C(=O)N(C)C(CC(C)(C)O)C(=O)NC(C(C)C)C(=O)N(C)C(CC(C)C)C(=O)NC(C)C(=O)NC(C)C(=O)N(C)C(CC(C)C)C(=O)N(C)C(CC(C)C)C(=O)N(C)C(C(C)C)C(=O)N1C [acetate, [(R)-2-(N,N-dimethylamino)ethylthio-Sar]3[4′-hydroxy-MeLeu]4 cyclosporin] | 0.3 | > 2 | > 2 | – |
| CC=CCC(C)C(O)C1C(=O)NC(CC)C(=O)N(C)C(SCCN(C)C)C(=O)N(C)C(CC(C)(C)O)C(=O)NC(C(C)C)C(=O)N(C)C(CC(C)C)C(=O)NC(C)C(=O)NC(C)C(=O)N(C)C(CC(C)C)C(=O)N(C)C(CC(C)C)C(=O)N(C)C(C(C)C)C(=O)N1C [hydrochloride, [(R)-2-(N,N-dimethylamino)ethylthio-Sar]3[4′-hydroxy-MeLeu]4 cyclosporin] | 0.38 | > 2 | > 2 | 0.11 |
| CC=CCC(C)C(O)C1C(=O)NC(CC)C(=O)N(C)C(SCCN(C)C)C(=O)N(C)C(CC(C)(C)O)C(=O)NC(C(C)C)C(=O)N(C)C(CC(C)C)C(=O)NC(C)C(=O)NC(C)C(=O)N(C)C(CC(C)C)C(=O)N(C)C(CC(C)C)C(=O)N(C)C(C(C)C)C(=O)N1C [phosphate, [(R)-2-(N,N-dimethylamino)ethylthio-Sar]3[4′-hydroxy-MeLeu]4 cyclosporin] | 0.47 | > 2 | > 2 | 0.13 |
| [(R)-2-(N,N-dimethylamino)ethylthio-Sar]3[4′-hydroxy-MeLeu]4 cyclosporin [citrate] | 0.41 | > 2 | > 2 | 0.11 |
| [(R)-2-(N,N-dimethylamino)ethylthio-Sar]3[4′-hydroxy-MeLeu]4 cyclosporin [propionate] | 0.32 | > 2 | > 2 | 0.1 |

Source: patent publication US7718767B2, “3-ether and 3-thioether substituted cyclosporin derivatives for the treatment and prevention of hepatitis C infection” (Scynexis, Inc., priority 2006, dated 2010)
